From publication PMC10121968, “Fosgonimeton, a Novel Positive Modulator of the HGF/MET System, Promotes Neurotrophic and Procognitive Effects in Models of Dementia” (Neurotherapeutics, 2022)
Non-standard residues stand in square brackets, D forms with d. Residues, ends and D or L forms follow the SMILES beside them. *: point of attachment. Hexanoyl = CCCCCC(=O)*; Ahx = NCCCCCC(=O)O

Tests used:
[1] = Oral bioavailability; conditions: in vivo
[2] = Plasma PK in rats after SC injection; format: in vivo, rat
Procedure: Four male rats were treated with 10 mg/kg fosgo-AM in DMSO via SC injection. Blood was serially collected at 0.08, 0.25, 0.5, 1, 2, and 4 h after dosing. Plasma was obtained by centrifugation with 2% disodium ethylenediaminetetraacetic acid (EDTA) as an anticoagulant. Plasma samples were precipitated with acetonitrile containing internal standard, and the concentration of fosgo-AM was determined by LC/MS/MS.
This study was conducted as described in the “Fosgo-AM PK in Rats” section with the following changes: animals were given 12 mg/kg fosgonimeton in saline with 0.1% glycine via SC injection, and a dose-linear correction was applied to normalize the dose to 10 mg/kg for comparison with the fosgo-AM study. Sample concentrations of both fosgonimeton and fosgo-AM were determined.

[3] = system: IL-6; test: IL-6 release in LPS-challenged THP-1 macrophages (HTRF); format: cell-based, human; conditions: 1 µM, 20 min pretreatment, LPS 50 ng/mL 24 h, vs LPS + vehicle
Procedure: To determine the effect of fosgo-AM on LPS-induced cytokine release, we sought to determine the levels of interleukin-1β (IL-1β), interleukin-6 (IL-6), and tumor necrosis factor-α (TNF-α) in LPS-challenged THP-1–differentiated macrophages in the presence and absence of fosgo-AM. THP-1 monocytes were grown at 37 °C, 5% CO2 in Roswell Park Memorial Institute (RPMI) medium + 10% FBS until approximately 80% confluent. Cells were seeded in polystyrene-treated 96-well cell culture plates at approximately 50,000 cells/well in 100-µL complete media. 100 µL Phorbol myristate acetate was then added to each well for a final concentration of 100 ng/mL. The plate was then incubated for 3 days at 37 °C, 5% CO2 to prime the monocytes into macrophages. […] For cytokine quantification, cell culture supernatant was assayed by HTRF kits to assess levels of IL-1β (Human IL-1β kit, #62HIL1BPEG, Cisbio, Codolet, France) and IL-6 (Human IL-6 kit, 62HIL06PET, Cisbio, Codolet, France), and by ELISA (Human TNF-α ELISA kit, KHC3011, ThermoFisher, Waltham, Massachusetts) to determine the levels of TNF-α. […] Fluorescence emission at 2 different wavelengths (665 nm and 620 nm) were measured on an Envision plate reader (PerkinElmer, Waltham, Massachusetts), and HTRF ratio of the acceptor and donor emission signals for each well was calculated as follows: HTRF ratio = (665 nm/620 nm) × 10,000. […]

[4] = system: primary rat cortical neurons; test: Neuroprotection, Cell Titer-Glo cell viability assay; format: cell-based; conditions: for percentage of recovery of cell viability: 1 µM, 24 h
Procedure: A Cell Titer-Glo (CTG) Luminescent Cell Viability Assay (Promega, Cat #G7571, Madison, Wisconsin) was used to assess the neuroprotective potential of fosgo-AM. Brain cortices were dissected from P1–3 rat pups and homogenized in DMEM containing 10% FBS. The resulting suspension was then incubated with a DNase/papain/trypsin solution for 30 min at 37 °C, followed by incubation in a collagenase solution for 1 h. Cells were then seeded at 5000 cells/well in 384-well plates and maintained at 37 °C and 5% CO2 in Complete Neurobasal Medium supplemented with B27/GDNF/BDNF containing 10% FBS. One day later, cultures were switched to serum-free neurobasal medium supplemented with 2% B27 and maintained until neuronal maturity (35–40 DIV). Media were changed every 3 days, and fresh medium was applied 24 h before each experiment. Cells were then treated with fosgo-AM at 1 µM, 100 nM, 10 nM, or 1 nM in a 0.5% DMSO vehicle for 15 min, and subjected to several conditional insults, including 1-methyl-4-phenylpryidinium (MPP+; 500 µM), glutamate (25 µM), lipopolysaccharide (LPS; 1 µM), or hydrogen peroxide (H2O2; 1 µM) for 24 h. After 24 h, 25 µL CTG reagent was added to each well and the plate was incubated with shaking for 15 min. Luminescence measurements to assess relative levels of ATP were performed on an Envision plate reader (PerkinElmer, Waltham, Massachusetts). Data for the vehicle control were set to 100% cell viability, and data for each other group were averaged, normalized to vehicle control, and presented as mean ± SEM. Data were assessed for normality (Shapiro–Wilk) and homoscedasticity (Brown-Forsythe). Statistical analyses were performed using one-way ANOVA with Tukey’s Multiple Comparison test (Prism GraphPad, San Diego, California). A value of p < 0.05 was considered to represent a statistically significant difference.

oral bioavailability [1]: poor oral bioavailability | fosgo-AM maximum concentration (Cmax) in plasma ([2]; after SC delivery of fosgonimeton (12 mg/kg, normalized to 10 mg/kg), after metabolism): 1198 ng/mL | fosgo-AM maximum concentration (Cmax) in plasma ([2]; after direct SC delivery of fosgo-AM 10 mg/kg): 329 ng/mL
Structure (SMILES): CCCCCC(=O)N[C@@H](Cc1ccc(O)cc1)C(=O)N[C@H](C(=O)NCCCCCC(N)=O)[C@@H](C)CC [fosgo-AM] (Hexanoyl-Tyr-Ile-[Ahx]-NH2)
IL-6 release [3]: significant decrease | percentage of recovery of cell viability ([4]; versus H2O2 (1 µM)): 144% | percentage of recovery of cell viability ([4]; versus LPS (1 µM)): 93% | percentage of recovery of cell viability ([4]; versus MPP+ (500 µM)): 85% | percentage of recovery of cell viability ([4]; versus glutamate (25 µM)): 61% | cell viability ([4]; all tested concentrations (1 nM–1 µM), against all insults (MPP+, glutamate, LPS, H2O2)): Significant improvement in cell viability
